Publication PMC12627933, “A First-In-Human Study of the SUMOylation Inhibitor Subasumstat in Patients with Advanced/Metastatic Solid Tumors or Relapsed/Refractory Hematologic Malignancies” (Cancer Research Communications, 2025)
Where two headings read alike, the source gives them in different places.

Experiment: Pharmacokinetics after 1-hour intravenous infusion (non-compartmental)
Format: in vivo, human
Conditions: for half-life: across all dose levels, read-out: Terminal disposition phase half-life
Method: Subasumstat PK were evaluated after the first dose on C1D1 and cycle 1 day 8 (C1D8). The parameters included maximum observed plasma concentration (Cmax), time to first occurrence of Cmax, area under the plasma concentration–time curve from time 0 to the last measurable concentration (AUC0–t) or from time 0 extrapolated to time infinity (AUC0–∞), terminal disposition phase half-life, total clearance, and volume of distribution at steady state. PK parameters were estimated from concentration–time profiles for the PK analysis set, using non-compartmental methods, with Phoenix WinNonlin (RRID: SCR_024504).

Compound: Cc1sc(C(=O)c2cncnc2N[C@@H]2C[C@H](COS(N)(=O)=O)[C@@H](O)C2)cc1[C@@H]1NCCc2ccc(Cl)cc21 [subasumstat]
- Time of maximum plasma and blood concentrations (after dose (end of infusion), intravenous, C1D1 and C1D8, phase I): approximately 1 hour
- Increase of Cmax, AUC0–t and AUC0–∞ with dose (dose range 3 to 120 mg, C1D1 and C1D8): approximately dose-proportional
- half-life (human, intravenous, plasma): 3.35 to 9.31 h
- clearance (human, intravenous, stated as lower in blood compared with plasma, matrix of the range not stated explicitly): 38.2 to 76 mL/min
- Vd (human, intravenous, stated as lower in blood compared with plasma, matrix of the range not stated explicitly, read-out: Volume of distribution at steady state): 13.7 to 38.8 L
- half-life (human, whole blood, intravenous, blood): 2.87 to 9.19 h
- Accumulation in plasma after multiple administrations (phase II, 90 mg twice weekly, C1D4, C1D8, C2D1, C2D8 vs C1D1): no apparent accumulation
